Test results as given in patent US9101631B2, “Combination therapy based on SRC and aurora kinase inhibition for the treatment of cancer” (Georgetown University, priority 2008, dated 2015).

Tested on: HCT116 colorectal cancer cells
Experiment: In vitro viability-based synergy assay (CellTiter Blue), dasatinib and C1368 alone and in combination
Description: HCT116 cells were plated at 3000 cells/well concentration into 96 well plates. […] Cells were incubated for an additional 72 hours and cellular viability measurements were performed using CellTiter Blue assay (Promega). IC50 values were calculated using XLFit and CI values were calculated using Calcusyn (Biosoft).

SMILES | IC50 value, agent alone (HCT116 cells, 72 hours treatment, single agent) | IC50 (Homo sapiens, HCT-116, 72 h, read-out: IC50 value, agent alone)
O=C(Nc1cccc(Nc2nccc(Nc3cccc(C(F)(F)F)c3)n2)c1)C1CC1 [C1368, Cyclopropanecarboxylic acid {3-[4-(3-trifluoromethyl-phenylamino)-pyrimidin-2-ylamino]-phenyl}-amide] | undeterminable | –
Cc1nc(Nc2ncc(C(=O)Nc3c(C)cccc3Cl)s2)cc(N2CCN(CCO)CC2)n1 [dasatinib] | – | 600 nM
